Test system: Caco-2 permeability, B->A Papp, LC-MS/MS
Assay: Inhibitors of Bloom's syndrome helicase: Caco-2 Permeability Profiling Assay
Details: hits give high values
From the text: Survival of cells and the faithful propagation of the genome depend on elaborate mechanisms of detecting and repairing DNA damage. Treatment of advanced cancer relies on radiation therapy or chemotherapy, which kill cancer cells by causing extensive DNA damage. It is often found, that cancer cells develop resistance to therapy through enhanced activity of DNA repair functions; this has led to an increased interest in developing drugs that interfere with DNA repair, which could sensitize cancer cells to conventional therapy. Bloom syndrome helicase (BLM), is important in resolving abnormal DNA structures formed during replication or homologous recombination. Shutting down the expression of BLM leads to chromosomal instability and higher radiation sensitivity in cultured cells. This permeability assay predicts the in vivo absorption of the lead across the intestinal lining by using a Caco-2 cell line and measuring the lead's […]. […] NIH Chemical Genomics Center [NCGC] NIH Molecular Libraries Probe Production Centers Network [MLPCN] MLSCN Grant: MH087284 PI Name: Dr. Opher Gileadi, Structural Genomics Consortium, University of Oxford, UK
1. […] The T0, LY and T90, LY plates are read by FlexStation 3 at excitation of 485 nm and emission of 535 nm to determine LY permeability. […]

O=C(Nc1ccc(F)c(C(F)(F)F)c1)Nc1nnc(-c2ccncc2)s1 was tested, and the permeability B->A Papp was 1 10^-6 cm/s.

Reference: PubChem BioAssay AID504737 (National Center for Advancing Translational Sciences (NCATS), 2011)
